Laboratory results as given in the NIST ThermoML archive (doi:10.1016/j.jct.2013.01.006).

Conditions: Liquid, Vibrating tube method

F/C=C/C(F)(F)F [trans-1,3,3,3-tetrafluoropropene]
Conditions | mass density [kg/m3]
283.55 K, 99990 kPa | 1403.02
283.56 K, 30000 kPa | 1295.8
283.56 K, 40000 kPa | 1316.15
283.56 K, 50000 kPa | 1334.15
283.56 K, 60000 kPa | 1350.35
283.56 K, 69990 kPa | 1365.2
283.56 K, 79990 kPa | 1378.71
283.56 K, 90000 kPa | 1391.26
283.57 K, 1000 kPa | 1211.68
283.57 K, 3000 kPa | 1219.58
283.57 K, 5000 kPa | 1227.04
283.57 K, 10000 kPa | 1243.89
283.57 K, 15000 kPa | 1258.79
283.57 K, 20000 kPa | 1272.23
283.57 K, 25000 kPa | 1284.48
293.41 K, 1000 kPa | 1180.6
293.41 K, 3000 kPa | 1189.81
293.41 K, 5000 kPa | 1198.39
293.41 K, 10000 kPa | 1217.4
293.41 K, 15000 kPa | 1234.07
293.41 K, 20000 kPa | 1248.82
293.41 K, 25000 kPa | 1262.23
293.41 K, 30000 kPa | 1274.5
293.41 K, 40000 kPa | 1296.38
293.41 K, 50000 kPa | 1315.5
293.41 K, 60000 kPa | 1332.69
293.41 K, 69990 kPa | 1348.45
293.41 K, 79990 kPa | 1362.63
293.41 K, 100010 kPa | 1387.95
293.42 K, 90000 kPa | 1375.74
303.38 K, 1000 kPa | 1149.74
303.38 K, 3000 kPa | 1160.58
303.39 K, 5000 kPa | 1170.47
303.39 K, 10000 kPa | 1192.27
303.39 K, 15000 kPa | 1210.87
303.39 K, 20000 kPa | 1227.2
303.39 K, 25000 kPa | 1241.85
303.39 K, 30000 kPa | 1255.15
303.39 K, 40000 kPa | 1278.68
303.39 K, 60000 kPa | 1317.3
303.4 K, 50000 kPa | 1299.13
303.4 K, 70000 kPa | 1333.74
303.4 K, 80010 kPa | 1348.59
303.4 K, 90000 kPa | 1362.33
303.4 K, 100000 kPa | 1375.04
313.33 K, 1000 kPa | 1112.39
313.33 K, 3000 kPa | 1125.51
313.34 K, 5000 kPa | 1137.25
313.34 K, 10000 kPa | 1162.32
313.35 K, 15000 kPa | 1183.22
313.35 K, 20000 kPa | 1201.24
313.35 K, 25000 kPa | 1217.24
313.36 K, 30000 kPa | 1231.65
313.36 K, 40000 kPa | 1256.89
313.36 K, 80000 kPa | 1330.76
313.36 K, 90000 kPa | 1345.06
313.36 K, 99990 kPa | 1358.3
313.37 K, 50000 kPa | 1278.66
313.37 K, 60000 kPa | 1297.92
313.37 K, 69990 kPa | 1315.13
323.14 K, 1000 kPa | 1074.03
323.15 K, 3000 kPa | 1090.3
323.15 K, 5000 kPa | 1104.41
323.15 K, 10000 kPa | 1133.63
323.15 K, 15000 kPa | 1157.19
323.15 K, 20000 kPa | 1177.23
323.15 K, 25000 kPa | 1194.71
323.15 K, 30000 kPa | 1210.33
323.15 K, 40000 kPa | 1237.43
323.15 K, 50000 kPa | 1260.55
323.15 K, 60000 kPa | 1280.78
323.15 K, 69990 kPa | 1299.16
323.15 K, 80000 kPa | 1315.46
323.15 K, 90000 kPa | 1330.39
323.15 K, 100000 kPa | 1344.16
333.06 K, 3000 kPa | 1051.57
333.06 K, 5000 kPa | 1068.99
333.07 K, 10000 kPa | 1103.45
333.07 K, 15000 kPa | 1130.26
333.07 K, 20000 kPa | 1152.47
333.07 K, 25000 kPa | 1171.67
333.08 K, 30000 kPa | 1188.58
333.08 K, 40000 kPa | 1217.68
333.08 K, 50000 kPa | 1242.22
333.09 K, 60000 kPa | 1263.59
333.09 K, 70000 kPa | 1282.87
333.1 K, 79990 kPa | 1299.88
333.1 K, 89990 kPa | 1315.41
333.1 K, 99990 kPa | 1329.71
343.06 K, 3000 kPa | 1007.98
343.07 K, 5000 kPa | 1030.29
343.07 K, 10000 kPa | 1071.6
343.07 K, 15000 kPa | 1102.25
343.07 K, 20000 kPa | 1127.03
343.07 K, 25000 kPa | 1148.05
343.07 K, 30000 kPa | 1166.47
343.07 K, 40000 kPa | 1197.69
343.07 K, 50000 kPa | 1223.79
343.07 K, 60000 kPa | 1246.3
343.07 K, 70000 kPa | 1266.4
343.08 K, 79990 kPa | 1284.18
343.08 K, 90000 kPa | 1300.35
343.08 K, 100000 kPa | 1315.2
352.97 K, 3000 kPa | 957.49
352.97 K, 60000 kPa | 1229.3
352.97 K, 70000 kPa | 1250.62
352.97 K, 79990 kPa | 1269.19
352.97 K, 89990 kPa | 1285.98
352.97 K, 99990 kPa | 1301.43
352.98 K, 5000 kPa | 987.78
352.98 K, 15000 kPa | 1073.64
352.98 K, 20000 kPa | 1101.36
352.98 K, 25000 kPa | 1124.45
352.98 K, 30000 kPa | 1144.41
352.98 K, 40000 kPa | 1177.85
352.98 K, 50000 kPa | 1205.56
352.99 K, 10000 kPa | 1038.43
362.93 K, 3000 kPa | 894.35
362.93 K, 5000 kPa | 939.3
362.94 K, 10000 kPa | 1003.24
362.94 K, 15000 kPa | 1044.15
362.94 K, 20000 kPa | 1075.24
362.94 K, 25000 kPa | 1100.62
362.94 K, 30000 kPa | 1122.31
362.95 K, 40000 kPa | 1158.16
362.95 K, 50000 kPa | 1187.53
362.95 K, 60000 kPa | 1212.48
362.95 K, 70010 kPa | 1234.72
362.95 K, 80000 kPa | 1254.07
362.96 K, 90000 kPa | 1271.47
362.96 K, 99990 kPa | 1287.46
